For 26 molecules, IC50 and inhibition results are on record in ChEMBL document CHEMBL2029348, “Synthesis, biological evaluation, and molecular docking studies of N,1,3-triphenyl-1H-pyrazole-4-carboxamide derivatives as anticancer agents” (Bioorg Med Chem Lett, 2012).

As a reminder, the IC50 is the concentration at which inhibition is half-maximal.

One test concerns HCT-116. Description: Cytotoxicity against human HCT116 cells after 48 hrs by MTT assay. The settings on record: HCT-116, 48 h. The format is functional, cell-based.
For a further test, the system named is MCF7. In words: Cytotoxicity against human MCF7 cells after 48 hrs by MTT assay. The settings on record: MCF7, 48 h. The format is functional, cell-based.
Another test deals with T1, Aurora kinase A (Homo sapiens, UniProt O14965).
T1 sequence (O14965 whole entry): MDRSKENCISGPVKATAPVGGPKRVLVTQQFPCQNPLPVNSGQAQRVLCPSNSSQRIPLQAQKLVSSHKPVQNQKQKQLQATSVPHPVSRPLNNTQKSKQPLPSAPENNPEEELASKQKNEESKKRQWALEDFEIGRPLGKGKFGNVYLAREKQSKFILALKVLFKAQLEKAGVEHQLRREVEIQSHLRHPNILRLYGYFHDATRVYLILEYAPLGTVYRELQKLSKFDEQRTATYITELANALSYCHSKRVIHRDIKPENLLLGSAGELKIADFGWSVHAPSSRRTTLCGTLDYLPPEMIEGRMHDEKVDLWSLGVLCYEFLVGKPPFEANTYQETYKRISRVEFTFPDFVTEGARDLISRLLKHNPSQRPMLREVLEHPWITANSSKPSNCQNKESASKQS
Description: Inhibition of human recombinant Aurora A kinase using biotinylated peptide substrate preincubated for 15 mins with compound measured after 30 mins by fluorescence analysis.

The target of test [1] is T2, Aurora kinase A (Homo sapiens) (UniProt O14965).
T2 sequence (whole entry): T1 sequence (O14965 whole entry)
In words: Inhibition of Aurora A kinase in human HCT116 cells at 0.5 to 2 uM by Western blot analysis. It counts as cell-based. The settings on record: HCT-116. In general terms: A western blot detects proteins with antibodies after separation by electrophoresis.

The source made the active and inactive calls. The calls are words filed in the database; no cut-off is given here.

As for `COc1ccc(NC(=O)c2cn(-c3ccccc3)nc2-c2ccc(OC)cc2)cc1`, the figures for the IC50 in the test on HCT-116, in the test on MCF7 and on Aurora kinase A were 1520 nM, 1770 nM and 1620 nM, respectively.

`COc1ccc(NC(=O)c2cn(-c3ccccc3)nc2-c2ccc([N+](=O)[O-])cc2)cc1`: the IC50 is 1020 nM in the test with HCT-116, 1210 nM with MCF7 and 790 nM at Aurora kinase A.

As for `COc1ccc(NC(=O)c2cn(-c3ccccc3)nc2-c2ccc(C)cc2)cc1`, the IC50 in the test on HCT-116 was determined as 1450 nM; in the test on MCF7 it was 1620 nM; at Aurora kinase A it was 1450 nM.

Take `Cc1ccc(-c2nn(-c3ccccc3)cc2C(=O)Nc2ccc(Cl)cc2)cc1`: the IC50 in the test with HCT-116 came out at 3880 nM; with MCF7, 4010 nM; on Aurora kinase A, 4790 nM.

In the case of `O=C(Nc1ccccc1)c1cn(-c2ccccc2)nc1-c1ccccc1`, the half-inhibitory concentration (IC50) with HCT-116 amounted to 2310 nM; with MCF7 it was 2340 nM; on Aurora kinase A, 2340 nM.

As to `O=C(Nc1ccc(Cl)cc1)c1cn(-c2ccccc2)nc1-c1ccccc1`, the IC50 was 3520 nM in the test with HCT-116, 3860 nM in the test with MCF7 and 3570 nM at Aurora kinase A.

As to `Cc1ccc(-c2nn(-c3ccccc3)cc2C(=O)Nc2ccccc2)cc1`, the figures for the IC50 in the test with HCT-116, in the test on MCF7 and at Aurora kinase A were 2360 nM, 2450 nM and 2650 nM, respectively.

As to `O=C(Nc1ccccc1)c1cn(-c2ccccc2)nc1-c1ccc([N+](=O)[O-])cc1`, the IC50 was 2010 nM with HCT-116, 2260 nM in the test with MCF7 and 2100 nM at Aurora kinase A.

For the molecule `O=C(Nc1ccccc1)c1cn(-c2ccccc2)nc1-c1ccc(Cl)cc1`, the IC50 with HCT-116 was 2180 nM; in the test with MCF7, 2340 nM; at Aurora kinase A, 2100 nM.

Turning to `O=C(Nc1ccc(Cl)cc1)c1cn(-c2ccccc2)nc1-c1ccc([N+](=O)[O-])cc1`, the IC50 stood at 2920 nM with HCT-116, 3240 nM in the test on MCF7 and 3040 nM at Aurora kinase A.

On to `COc1ccc(-c2nn(-c3ccccc3)cc2C(=O)Nc2ccccc2)cc1`, for which the figures for the IC50 in the test with HCT-116, in the test with MCF7 and at Aurora kinase A were 2540 nM, 2530 nM and 2780 nM, respectively.

On to `CCOc1ccc(NC(=O)c2cn(-c3ccccc3)nc2-c2ccc([N+](=O)[O-])cc2)cc1`, for which the IC50 in the test with HCT-116 was 390 nM; in the test on MCF7, 460 nM; at Aurora kinase A, 160 nM. For the same molecule, in test [1], the inhibition result was “Active”.

Consider `COc1ccc(NC(=O)c2cn(-c3ccccc3)nc2-c2ccccc2)cc1`, for which the IC50 with HCT-116 came out at 1350 nM; in the test with MCF7, 1710 nM; at Aurora kinase A it was 1330 nM.

As to `O=C(Nc1ccc(Br)cc1)c1cn(-c2ccccc2)nc1-c1ccccc1`, the IC50 in the test with HCT-116 is 4470 nM; in the test with MCF7 it was 5750 nM; at Aurora kinase A, 7250 nM.

With `COc1ccc(-c2nn(-c3ccccc3)cc2C(=O)Nc2ccc(Cl)cc2)cc1`, the IC50 in the test with HCT-116 was 4060 nM; in the test on MCF7, 4350 nM; on Aurora kinase A, 5590 nM.

For `O=C(Nc1ccc(Cl)cc1)c1cn(-c2ccccc2)nc1-c1ccc(Cl)cc1`, the IC50 with HCT-116 was 2990 nM; with MCF7, 3750 nM; at Aurora kinase A, 3180 nM.

For the molecule `Cc1cc(Nc2cc(N3CCN(C)CC3)nc(Sc3ccc(NC(=O)C4CC4)cc3)n2)n[nH]1` [TOZASERTIB], the IC50 in the test with MCF7 was 380 nM.

On to `COc1ccc(-c2nn(-c3ccccc3)cc2C(=O)Nc2ccc(Br)cc2)cc1`, for which the IC50 with HCT-116 came to 5870 nM; with MCF7, 8210 nM; on Aurora kinase A, 12400 nM.

For the molecule `CCOc1ccc(NC(=O)c2cn(-c3ccccc3)nc2-c2ccc(C)cc2)cc1`, the IC50 is 780 nM with HCT-116, 1030 nM in the test on MCF7 and 650 nM at Aurora kinase A.

Consider `O=C(Nc1ccc(Br)cc1)c1cn(-c2ccccc2)nc1-c1ccc([N+](=O)[O-])cc1`, for which the IC50 with HCT-116 was determined as 4080 nM; with MCF7, 5300 nM; at Aurora kinase A, 5520 nM.

Take `Cc1ccc(-c2nn(-c3ccccc3)cc2C(=O)Nc2ccc(Br)cc2)cc1`: the IC50 with HCT-116 was determined as 5350 nM; in the test with MCF7, 6080 nM; at Aurora kinase A, 7320 nM.

Turning to `CCOc1ccc(NC(=O)c2cn(-c3ccccc3)nc2-c2ccc(Cl)cc2)cc1`, the IC50 in the test with HCT-116 amounted to 420 nM; with MCF7, 560 nM; on Aurora kinase A it was 220 nM.

As for `COc1ccc(NC(=O)c2cn(-c3ccccc3)nc2-c2ccc(Cl)cc2)cc1`, the IC50 in the test with HCT-116 came to 1330 nM; in the test on MCF7, 1550 nM; at Aurora kinase A it was 840 nM.

Turning to `CCOc1ccc(NC(=O)c2cn(-c3ccccc3)nc2-c2ccc(OC)cc2)cc1`, the IC50 worked out at 970 nM in the test on HCT-116, 1100 nM in the test on MCF7 and 780 nM at Aurora kinase A.

On to `CCOc1ccc(NC(=O)c2cn(-c3ccccc3)nc2-c2ccccc2)cc1`, for which the figures for the IC50 in the test on HCT-116, in the test on MCF7 and on Aurora kinase A were 620 nM, 880 nM and 420 nM, respectively.

As to `O=C(Nc1ccc(Br)cc1)c1cn(-c2ccccc2)nc1-c1ccc(Cl)cc1`, the values for the IC50 with HCT-116, in the test on MCF7 and at Aurora kinase A were 4360 nM, 5310 nM and 5710 nM, respectively.
